Measured values from article PMC4896225 (Journal of immunology (Baltimore, Md. : 1950), 2016).

Target: gp96 (Canis lupus, UniProt P41148)
Test: gamma-32P ATP ATPase assay with purified gp96
Format: biochemical

gp96, sequence (P41148 22-804): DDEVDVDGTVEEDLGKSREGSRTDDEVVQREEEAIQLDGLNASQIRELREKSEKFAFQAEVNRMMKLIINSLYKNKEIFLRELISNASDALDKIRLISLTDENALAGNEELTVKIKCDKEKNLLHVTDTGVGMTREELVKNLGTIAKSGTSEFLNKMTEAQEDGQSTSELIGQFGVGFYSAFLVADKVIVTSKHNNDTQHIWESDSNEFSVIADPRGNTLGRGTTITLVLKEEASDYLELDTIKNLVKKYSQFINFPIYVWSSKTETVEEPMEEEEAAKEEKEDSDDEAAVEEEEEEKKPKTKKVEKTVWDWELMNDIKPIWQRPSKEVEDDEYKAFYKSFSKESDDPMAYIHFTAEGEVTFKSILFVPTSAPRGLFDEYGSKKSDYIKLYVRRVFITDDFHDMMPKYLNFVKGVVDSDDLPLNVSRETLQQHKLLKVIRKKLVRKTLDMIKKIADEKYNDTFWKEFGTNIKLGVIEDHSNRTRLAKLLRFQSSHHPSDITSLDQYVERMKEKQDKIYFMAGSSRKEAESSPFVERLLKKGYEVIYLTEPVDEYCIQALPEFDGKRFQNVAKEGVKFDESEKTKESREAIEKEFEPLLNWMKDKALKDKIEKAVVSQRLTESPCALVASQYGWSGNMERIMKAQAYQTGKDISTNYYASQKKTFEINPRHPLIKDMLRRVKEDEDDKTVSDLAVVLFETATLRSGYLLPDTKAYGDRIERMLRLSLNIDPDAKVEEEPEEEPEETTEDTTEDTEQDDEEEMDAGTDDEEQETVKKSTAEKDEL

IC50: ~0.3 µM
SMILES: C/C(=N\NC(=N)N)c1cc(NC(=O)CCCCCCCCC(=O)Nc2cc(/C(C)=N/NC(=N)N)cc(/C(C)=N/NC(=N)N)c2)cc(/C(C)=N/NC(=N)N)c1 [Semapimod, N, N’-bis [3,5-diacetylphenyl] decanediamide tetrakis [amidinohydrazone]]
